Test results from paper PMC6271425, “Synthesis and Sar Study of Diarylpentanoid Analogues as New Anti-Inflammatory Agents” (Molecules, 2014).
Where two headings read alike, the source gives them in different places.

Experiments:
[1] = Cell cytotoxicity determination (MTT assay); format: cell-based, murine; conditions: mouse, RAW 264.7 macrophage cells, RAW 264.7 cells, read-out: Cytotoxicity IC50 (µM) ± S.E.M
Protocol: The synthesized compounds were screened for NO suppression activity in IFN-γ/LPS-stimulated RAW 264.7 macrophages at a 50 µM test concentration. […] The IC50 values of the fifty-seven bioactive compounds were determined and compared to that of the positive control, curcumin. An MTT assay was also carried out to confirm that NO inhibition was not due to cytotoxicity. […] The complete bioassay results of all the compounds are provided as Table S2 in Supplementary Data.
RAW 264.7 murine macrophages cells obtained from American Type Culture Collection (ATCC, Rockville, MD, USA) were grown in Dulbecco’s Modified Eagle’s Medium (DMEM) containing 10% fetal bovine serum (FBS) and 1% penicillin/streptomycin in a 95% air and 5% CO2 atmosphere at 37 °C.
Supernatant in each well was removed followed by addition of 100 µL DMEM. Subsequently, 20 µL of 3-(4,5-dimethylthiazol-2-yl)-2,5-diphenyltetrazolium bromide (MTT, 5 mg/mL) was then added and the plate was incubated in a 95% air and 5% CO2 atmosphere at 37 °C for 4 h. The mixture of culture media and MTT in all wells were removed and the purplish formazan crystals formed were dissolved in dimethyl sulfoxide (DMSO) and further incubated for 15 min at room temperature. The color intensity was then measured at 570 nm at room temperature.

[2] = tested on: NO production in IFN-γ/LPS-stimulated RAW 264.7 macrophages; assay: NO suppression (Griess nitrite determination) in IFN-γ/LPS-stimulated RAW 264.7 macrophages; format: cell-based, murine; conditions: for NO Inhibition at 50 µM (%) ± S.E.M: 50 µM test concentration; for inhibition at 50 µM: RAW264.7, 50 µM test concentration, read-out: NO Inhibition at 50 µM (%) ± S.E.M
Protocol: The synthesized compounds were screened for NO suppression activity in IFN-γ/LPS-stimulated RAW 264.7 macrophages at a 50 µM test concentration. […] The IC50 values of the fifty-seven bioactive compounds were determined and compared to that of the positive control, curcumin. An MTT assay was also carried out to confirm that NO inhibition was not due to cytotoxicity. […] The complete bioassay results of all the compounds are provided as Table S2 in Supplementary Data. RAW 264.7 murine macrophages cells obtained from American Type Culture Collection (ATCC, Rockville, MD, USA) were grown in Dulbecco’s Modified Eagle’s Medium (DMEM) containing 10% fetal bovine serum (FBS) and 1% penicillin/streptomycin in a 95% air and 5% CO2 atmosphere at 37 °C. RAW 264.7 cells at 90%–95% confluency were detached and seeded (50,000 cells/well) into a 96-well culture plate with 50 μL of DMEM and incubated for 24 h. The cells were then stimulated in […] of LPS (Escherichia coli, serotype 0111:B4) and 1 ng/ml of interferon-gamma (IFN-γ) in the presence or absence of test compounds for 17 h. Nitrite concentration was then determined by Griess assay by reacting 50 μL of cell culture supernatant with 50 μL of Griess reagent (1% sulfanilamide and 0.1% N-(1-naphthyl)ethylenediamine dihydrochloride in 2.5% phosphoric acid) at room temperature. The optical density was measured at 550 nm after 5 min of incubation at room temperature with a microplate reader.

[3] = IFN-γ/LPS-stimulated RAW 264.7 cells
[4] = Mus musculus, IFN-γ/LPS-stimulated RAW 264.7 cells
[5] = Mus musculus, RAW264.7, IFN-γ/LPS-stimulated RAW 264.7 cells, read-out: NO Inhibition IC50 (µM) ± S.E.M
[6] = Mus musculus, RAW264.7, Table 6, NO suppression IC50 used for QSAR, unit inferred, read-out: IC50
[7] = Mus musculus, RAW264.7, −log IC50 of NO suppression, read-out: pIC50 (converted)
[8] = IFN-γ/LPS-stimulated RAW 264.7 cells, read-out: NO Inhibition IC50 (µM) ± S.E.M

| Compound | IC50 [1] | NO Inhibition at 50 µM (%) ± S.E.M [2, 3] | inhibition at 50 µM [2, 4] | IC50 [2, 5] | IC50 [2, 6] | IC50 [2, 7] | IC50 [2, 8] |
| --- | --- | --- | --- | --- | --- | --- | --- |
| O=C(/C=C(O)/C=C/c1ccccc1)c1ccccc1O [Compound 1] | 56.2 ± 1.1 µM | 94.7 ± 1.2% | 94.7 ± 1.2% | 22.6 ± 0.515 µM | 22.6 ± 0.5 µM | 22.4 µM |  |
| O=C(/C=C(O)/C=C/c1ccccc1Cl)c1ccccc1O [Compound 2] | > 100 µM |  | 91 ± 2.9% | 27.32 ± 0.234 µM | 27.3 ± 0.2 µM | 27.5 µM |  |
| O=C(/C=C(O)/C=C/c1cccc(Cl)c1)c1ccccc1O [Compound 3] | > 100 µM | 93.0 ± 3.4% | 93 ± 3.43% | 26.7 ± 0.732 µM | 26.7 ± 0.7 µM | 26.9 µM |  |
| O=C(/C=C(O)/C=C/c1cccc(Br)c1)c1ccccc1O [Compound 4] | > 100 µM | 88.4 ± 3.2% | 88.4 ± 3.21% | 29.4 ± 0.7 µM | 29.4 ± 0.7 µM | 29.5 µM |  |
| COc1ccccc1/C=C/C(O)=C/C(=O)c1ccccc1O [Compound 5] | > 100 µM | 91.8 ± 1.5% | 91.8 ± 1.49% | 25.7 ± 0.621 µM | 25.7 ± 0.6 µM | 25.7 µM |  |
| COc1cccc(/C=C/C(O)=C/C(=O)c2ccccc2O)c1 [Compound 6] | > 100 µM | 81.6 ± 4.0% | 81.6 ± 3.97% | 31.6 ± 0.632 µM | 31.6 ± 0.6 µM | 31.6 µM |  |
| COc1ccc(/C=C/C(O)=C/C(=O)c2ccccc2O)cc1OC [Compound 8] | > 100 µM | 94.7 ± 1.7% | 94.7 ± 1.7% | 24.6 ± 0.73 µM | 24.6 ± 0.7 µM | 24.5 µM |  |
| COc1cc(/C=C/C(O)=C/C(=O)c2ccccc2O)cc(OC)c1OC [Compound 9] | > 100 µM | 96.6 ± 1.4% | 96.6 ± 1.43% | 16.6 ± 1.14 µM | 16.6 ± 1.1 µM | 16.6 µM | < 20 µM |
| O=C(/C=C(O)/C=C/c1ccco1)c1ccccc1O [Compound 12] | > 100 µM | 82.0 ± 3.2% | 82 ± 3.18% | 49 ± 1.05 µM | 49 ± 1 µM | 49 µM |  |
| COc1ccc(OC)c(/C=C/C(O)=C/C(=O)c2ccccc2O)c1 [Compound 14] | > 100 µM |  | 92.9 ± 0.2% | 28.4 ± 0.435 µM | 28.4 ± 0.4 µM | 28.2 µM |  |
| O=C(/C=C(O)/C=C/c1cccs1)c1ccccc1O [Compound 16] | > 100 µM | 79.1 ± 4.6% | 79.1 ± 4.58% | 42.64 ± 0.128 µM | 42.6 ± 0.1 µM | 42.7 µM |  |
| Cc1ccc(/C=C/C(O)=C/C(=O)c2ccccc2O)s1 [Compound 18] | > 100 µM | 58.9 ± 5.8% | 58.9 ± 5.76% | 39.6 ± 4.13 µM | 39.6 ± 4.1 µM | 39.8 µM |  |
| O=C(/C=C(O)/C=C/c1cccc2ccccc12)c1ccccc1O [Compound 19] | > 100 µM | 85.8 ± 3.9% | 85.8 ± 3.93% | 23 ± 1.7 µM | 23 ± 1.7 µM | 22.9 µM |  |
| O=C(/C=C(O)/C=C/c1ccccc1)c1cc(Cl)ccc1O [Compound 21] | > 100 µM | 85.3 ± 6.8% | 85.3 ± 6.76% | 47.6 ± 1.14 µM | 47.6 ± 1.1 µM | 47.9 µM |  |
| O=C(/C=C(O)/C=C/c1ccccc1Cl)c1cc(Cl)ccc1O [Compound 22] | > 100 µM | 82.5 ± 4.3% | 82.5 ± 4.32% | 30 ± 2.1 µM | 30 ± 2.1 µM | 30.2 µM |  |
| O=C(/C=C(O)/C=C/c1cccc(Cl)c1)c1cc(Cl)ccc1O [Compound 23] | 68.4 ± 2.2 µM | 66.6 ± 4.1% | 66.6 ± 4.11% | 36.2 ± 0.922 µM | 36.2 ± 0.9 µM | 36.3 µM |  |
| COc1ccccc1/C=C/C(O)=C/C(=O)c1cc(Cl)ccc1O [Compound 24] | > 100 µM | 70.4 ± 1.3% | 70.4 ± 1.32% | 36 ± 0.515 µM | 36 ± 0.5 µM | 36.3 µM |  |
| COc1cccc(/C=C/C(O)=C/C(=O)c2cc(Cl)ccc2O)c1 [Compound 25] | > 100 µM | 76.3 ± 6.5% | 76.3 ± 6.48% | 17.4 ± 0.372 µM | 17.4 ± 0.4 µM | 17.4 µM | < 20 µM |
| COc1cc(/C=C/C(O)=C/C(=O)c2cc(Cl)ccc2O)cc(OC)c1OC [Compound 28] | > 100 µM |  | 89.5 ± 5.9% | 13.6 ± 0.532 µM | 13.6 ± 0.5 µM | 13.5 µM | < 20 µM |
| O=C(/C=C(O)/C=C/c1cccs1)c1cc(Cl)ccc1O [Compound 35] | > 100 µM | 68.8 ± 4.2% | 68.8 ± 4.21% | 32.17 ± 0.176 µM | 32.2 ± 0.2 µM | 32.4 µM |  |
| O=C(/C=C(O)/C=C/c1ccc(Cl)s1)c1cc(Cl)ccc1O [Compound 36] | > 100 µM | 71.6 ± 3.2% | 71.5 ± 3.2% | 25.3 ± 1.73 µM | 25.3 ± 1.7 µM | 25.1 µM |  |
| Cc1ccc(/C=C/C(O)=C/C(=O)c2cc(Cl)ccc2O)s1 [Compound 37] | > 100 µM | 56.0 ± 2.6% | 56 ± 2.62% | 62.4 ± 2.29 µM | 62.4 ± 2.3 µM | 63.1 µM |  |
| O=C(/C=C(O)/C=C/c1cc(O)ccc1O)c1ccccc1O [Compound 83] |  | 94.3 ± 1.8% | 94.3 ± 1.83% | 16.7 ± 0.557 µM | 16.7 ± 0.6 µM | 16.6 µM | < 20 µM |
